From patent US7235548B2, “Compounds and their use as positive AMPA receptor modulators” (NeuroSearch A/S, priority 1998, dated 2007)

Tested on: AMPA receptors
Assay: AMPA evoked single neuron spike activity in rat hippocampus (iontophoretic application of AMPA), in vivo
Conditions: for AMPA evoked spike activity: rat hippocampus
Description: Evaluation of the in vivo effects of positive AMPA modulators (PAMs) on the AMPA evoked spike activity in rat hippocampus. Hippocampal single neuron spike activity is strongly influenced by excitatory input, and iontophoretic application of AMPA induces spike activity in vivo in a dose-dependent manner ([…] et al. 1998). […] PAMs potentate AMPA receptor activation in vitro, and if this mechanism also operates in vivo, the i.v. injection of an PAM should enhance AMPA evoked spike activity. Thus, the aim of this study was to test the in vivo effect of a group of in vitro active PAMs. This have been done by studying their ability to enhances AMPA evoked spike activity after i.v. administration. Experiments were performed on male Wistar rats (M & B, Denmark) weighing 280-380 g, housed in two per cage with free access to food and water. […] Additional anaesthetic was given i.v. if the rat responded to a pinch of the back foot. The trachea was cannulated and the rats were placed in a stereotaxic frame and ventilated by a rodent ventilator (Ugo Basile, Comerio-Varese, Italy). Core body temperature was maintained at 37.5° C. by a DC heating pad. The left and dorsal part of the parietal bone was removed by craniotomy and the dura was withdrawn exposing the pia mater and underlying brain, covered with 0.9% NaCl. AMPA (Sigma, USA) was dissolved at 10 mM in 0.2 M NaCl. NMDA (Sigma, USA) was dissolved at 100 mM in 100 mM NaCl. Both solutions were adjusted to pH 7.5-8.0 with NaOH. COMPOUND 61 was dissolved in 200 mM CH3SO3^- Na^+ at a contration of 10 mM for iontophoretic application ([…]) and in isotonic glucose (278 mM) for i.v. administration. Cyclothiazide, COMPOUND 63, COMPOUND 56, COMPOUND 115 and COMPOUND 114 were all dissolved at in 5% chremophore solution at a concentration of 5 mg ml^-1. Evoked neuronal spike activity was analyzed on-line by a computer, saving single spikes and time of event. Neuronal spike activity (number of action potentials s^-1) was monitored on a pulse rate histogram together with indicators for AMPA, COMPOUND 61 and vehicle application. Extracellular recordings of single hippocampal neuron spikes were made with five-barrel glass microelectrodes (5B120F-6, World Precision Instruments Inc., Sarasota, Fla., USA) with a tip diameter of 10-12 μm. The individual barrels were filled with 5 M NaCl (recording), 400 mM NaCl (current balancing), 10 mM COMPOUND 61 in 200 mM CH3SO3^- Na^+ (pH 4.7), 200 mM CH3SO3^- Na^+ (pH 4.7, Vehicle), and the last barrel was filled with the AMPA. Experiments were performed on hippocampal neurons (A=5.5-6.5 mm, L=1.5-2.0 mm, H=2.0-3.0 mm, according to Paxinos & Watson, 1986). Neuronal spike activity was evoked by iontophoretic application of AMPA for periods of 10 to 15 s with 1.5 min intervals. Single neuron spike activity was amplified 5000 times with a bandwidth of 0.3 and 3 kHz (CyberAmp 320 with a Al 402 x50 smartprobe, Axon Instruments, California, USA). On-line and off-line analyses were performed by the Spike2 program with a 1401 plus interface (Cambridge Electronic Design Limited, England). The computer program also recorded mean arterial blood pressure and monitored and controlled iontophoretic application. AMPA was ejected into hippocampus in regular cycles of 100-105 s. […] Recording of neuronal spike activity was continued for at least 45 min after intravenous injection. The PAM reactivity was tested by microiontophoretic application of COMPOUND 61 (20 nA, FIG.).

For `CN1CCN(S(=O)(=O)c2ccc3c(c2)S(=O)(=O)NC(C2CCCCC2)N3)CC1` (centres unmarked) [Compound 61, 3-Cyclohexyl-7-(4′-methylpiperazino)sulfonyl-1,2,3,4-tetrahydro-1,2,4-benzothiadiazine-1,1-dioxide], the “onset of the enhancement after i.v. administration” value (10 mg kg^−1 i.v.) was 20 min, the “AMPA evoked spike activity” value (10 mg kg^−1 i.v.) was “enhanced” and the “increase in AMPA evoked spike activity” value (10 mg kg^−1 i.v., FIG. 14) was 3 fold. The “AMPA evoked spike activity” value (iontophoretic application of the compound (20 nA)) was “enhanced”.

For `Cc1cc2c(cc1S(=O)(=O)N1CCOCC1)S(=O)(=O)NC(C1CCCCC1)N2` (centres unmarked) [Compound 115, 3-Cyclohexyl-6-methyl-7-morpholinosulfonyl-1,2,3,4-tetrahydro-1,2,4-benzothiadiazine-1,1-dioxide], the “onset of the enhancement after i.v. administration” value (10 mg kg^−1 i.v.) was 2 min and the “AMPA evoked spike activity” value (10 mg kg^−1 i.v.) was “enhancement”.

`O=S1(=O)NC(C2CCCCC2)Nc2ccc(S(=O)(=O)N3CCOCC3)cc21` (centres unmarked) [Compound 63, 3-Cyclohexyl-7-morpholinosulfonyl-1,2,3,4-tetrahydro-1,2,4-benzothiadiazine-1,1-dioxide] was tested, and the “initial effect on the AMPA responses” value (10 mg kg^−1 i.v., before onset of enhancement) was “initial inhibition”, the “large AMPA responses, evoked by high intensity AMPA stimulation” value (10 mg kg^−1 i.v., high intensity AMPA (17 nA)) was “only marginal effect” and the “small AMPA responses, evoked by low intensity AMPA stimulation” value (10 mg kg^−1 i.v., low intensity AMPA (12 nA)) was “enhanced”.

For `Cc1cc2c(cc1S(=O)(=O)N1CCCCC1)S(=O)(=O)NC(C1CCCC1)N2` (centres unmarked) [Compound 114, 3-Cyclopentyl-6-methyl-7-piperidinosulfonyl-1,2,3,4-tetrahydro-1,2,4-benzothia-diazine-1,1-dioxide], the “AMPA evoked spike activity” value (10 mg kg^−1 i.v.) was “enhanced”, the “increase of the AMPA responses” value (10 mg kg^−1 i.v., control level of the AMPA responses low, FIG. 15) was 10 fold and the “AMPA response after administration” value (10 mg kg^−1 i.v., larger control responses, from 124, FIG. 16) was 204 spikes response^−1. For the same compound, the “enhancement of the AMPA responses” value (10 mg kg^−1 i.v., larger control responses, FIG. 16) was “approximately doubled” and the “AMPA response after administration, mean response” value (10 mg kg^−1 i.v., low control level, from 21, FIG. 15) was 209 spikes response^−1.
